Results reported in ChEMBL document CHEMBL3621157, “Design, synthesis and biological evaluation of novel 1,2,4-triazolo and 1,2,4-triazino[4,3-a]quinoxalines as potential anticancer and antimicrobial agents” (2015).
In brackets after ≈: the same amount, converted by molar mass.

How the values were obtained:
Assay type in all cases: functional
Bacillus subtilis [1] = assay: Antimicrobial activity against Bacillus subtilis ATCC 6633 incubated for 24 hrs followed by transfer of colonies to Muller-Hinton agar plate and measured after 18 hrs by two-fold serial broth dilution method
Escherichia coli [2] = assay: Antimicrobial activity against Escherichia coli ATCC 11775 incubated at 37 degC for 24 hrs by cup diffusion method
Staphylococcus aureus [3] = assay: Antimicrobial activity against Staphylococcus aureus DSM 1104 incubated at 37 degC for 24 hrs by cup diffusion method
A498 = assay: Growth inhibition of human A498 cells at 10 uM incubated for 48 hrs by sulforhodamine B assay; settings: A498, 48 h, read-out: GI
PC-3 = assay: Growth inhibition of human PC3 cells at 10 uM incubated for 48 hrs by sulforhodamine B assay; settings: PC-3, 48 h, read-out: GI
Candida albicans [4] = assay: Antimicrobial activity against Candida albicans DSM 70014 incubated for 48 hrs followed by transfer of colonies to Muller-Hinton agar plate and measured after 18 hrs by two-fold serial broth dilution method
Pseudomonas aeruginosa [5] = assay: Antimicrobial activity against Pseudomonas aeruginosa ATCC 10145 incubated for 24 hrs followed by transfer of colonies to Muller-Hinton agar plate and measured after 18 hrs by two-fold serial broth dilution method
SNB-75 = assay: Growth inhibition of human SNB75 cells at 10 uM incubated for 48 hrs by sulforhodamine B assay; settings: SNB-75, 48 h, read-out: GI
Staphylococcus aureus [6] = assay: Antimicrobial activity against Staphylococcus aureus DSM 1104 incubated for 24 hrs by two-fold serial broth dilution method; settings: DSM 1104, 24 h
Pseudomonas aeruginosa [7] = assay: Antimicrobial activity against Pseudomonas aeruginosa ATCC 10145 incubated for 24 hrs by two-fold serial broth dilution method; settings: ATCC 10145, 24 h
Bacillus subtilis [8] = assay: Antimicrobial activity against Bacillus subtilis ATCC 6633 incubated at 37 degC for 24 hrs by cup diffusion method
Escherichia coli [9] = assay: Antimicrobial activity against Escherichia coli ATCC 11775 incubated for 24 hrs followed by transfer of colonies to Muller-Hinton agar plate and measured after 18 hrs by two-fold serial broth dilution method
Pseudomonas aeruginosa [10] = assay: Antimicrobial activity against Pseudomonas aeruginosa ATCC 10145 incubated at 37 degC for 24 hrs by cup diffusion method
Escherichia coli [11] = assay: Antimicrobial activity against Escherichia coli ATCC 11775 incubated for 24 hrs by two-fold serial broth dilution method; settings: ATCC 11775, 24 h
Bacillus subtilis [12] = assay: Antimicrobial activity against Bacillus subtilis ATCC 6633 incubated for 24 hrs by two-fold serial broth dilution method; settings: ATCC 6633, 24 h
NCI-H226 = assay: Growth inhibition of human NCI-H226 cells at 10 uM incubated for 48 hrs by sulforhodamine B assay; settings: NCI-H226, 48 h, read-out: GI
UO-31 = assay: Growth inhibition of human UO31 cells at 10 uM incubated for 48 hrs by sulforhodamine B assay; settings: UO-31, 48 h, read-out: GI
Candida albicans [13] = assay: Antimicrobial activity against Candida albicans DSM 70014 incubated for 48 hrs by two-fold serial broth dilution method; settings: DSM 70014, 48 h
Staphylococcus aureus [14] = assay: Antimicrobial activity against Staphylococcus aureus DSM 1104 incubated for 24 hrs followed by transfer of colonies to Muller-Hinton agar plate and measured after 18 hrs by two-fold serial broth dilution method
Candida albicans [15] = assay: Antimicrobial activity against Candida albicans DSM 70014 incubated at 37 degC for 48 hrs by cup diffusion method
[16] = Growth inhibition of human NCI-ADR-RES cells at 10 uM incubated for 48 hrs by sulforhodamine B assay; settings: read-out: GI
[17] = Growth inhibition of human HOP92 cells at 10 uM incubated for 48 hrs by sulforhodamine B assay; settings: HOP-92, 48 h, read-out: GI
MDA-MB-231 = assay: Growth inhibition of human MDA-MB-231 cells at 10 uM incubated for 48 hrs by sulforhodamine B assay; settings: MDA-MB-231, 48 h, read-out: GI
A549 = assay: Growth inhibition of human A549 cells at 10 uM incubated for 48 hrs by sulforhodamine B assay; settings: A549, 48 h, read-out: GI
HCT-116 = assay: Growth inhibition of human HCT116 cells at 10 uM incubated for 48 hrs by sulforhodamine B assay; settings: HCT-116, 48 h, read-out: GI
HT-29 = assay: Growth inhibition of human HT-29 cells at 10 uM incubated for 48 hrs by sulforhodamine B assay; settings: HT-29, 48 h, read-out: GI
[18] = Growth inhibition of human EKVX cells at 10 uM incubated for 48 hrs by sulforhodamine B assay; settings: read-out: GI
[19] = Growth inhibition of human RXF393 cells at 10 uM incubated for 48 hrs by sulforhodamine B assay; settings: RXF 393, 48 h, read-out: GI
CAKI-1 = assay: Growth inhibition of human Caki1 cells at 10 uM incubated for 48 hrs by sulforhodamine B assay; settings: CAKI-1, 48 h, read-out: GI
NCI-H23 = assay: Growth inhibition of human NCI-H23 cells at 10 uM incubated for 48 hrs by sulforhodamine B assay; settings: NCI-H23, 48 h, read-out: GI
HCT-15 = assay: Growth inhibition of human HCT15 cells at 10 uM incubated for 48 hrs by sulforhodamine B assay; settings: HCT-15, 48 h, read-out: GI
NCI-H522 = assay: Growth inhibition of human NCI-H522 cells at 10 uM incubated for 48 hrs by sulforhodamine B assay; settings: NCI-H522, 48 h, read-out: GI
SF-268 = assay: Growth inhibition of human SF268 cells at 10 uM incubated for 48 hrs by sulforhodamine B assay; settings: SF-268, 48 h, read-out: GI
OVCAR-3 = assay: Growth inhibition of human OVCAR3 cells at 10 uM incubated for 48 hrs by sulforhodamine B assay; settings: OVCAR-3, 48 h, read-out: GI

SMILES	MBC (Bacillus subtilis [1]) [µg/mL]	inhibition zone (IZ) (Escherichia coli [2]) [mm]	inhibition zone (IZ) (Staphylococcus aureus [3]) [mm]	MFC (Candida albicans [4]) [µg/mL]	MBC (Pseudomonas aeruginosa [5]) [µg/mL]	inhibition of growth at 10 µM (SNB-75) [%]	MIC (Staphylococcus aureus [6]) [µg/mL]	MIC (Pseudomonas aeruginosa [7]) [µg/mL]	inhibition zone (IZ) (Bacillus subtilis [8]) [mm]	MBC (Escherichia coli [9]) [µg/mL]	inhibition zone (IZ) (Pseudomonas aeruginosa [10]) [mm]	MIC (Escherichia coli [11]) [µg/mL]	MIC (Bacillus subtilis [12]) [µg/mL]	inhibition of growth at 10 µM (UO-31) [%]	MIC (Candida albicans [13]) [µg/mL]	MBC (Staphylococcus aureus [14]) [µg/mL]	inhibition zone (IZ) (Candida albicans [15]) [mm]	also measured
c1ccc(Cc2nc3ccccc3n3cnnc23)cc1	50 (≈ 192 µM)	12	17	200 (≈ 768 µM)	100 (≈ 384 µM)	23.5	50 (≈ 192 µM)	50 (≈ 192 µM)	12	25 (≈ 96 µM)	14	25 (≈ 96 µM)	50 (≈ 192 µM)	22.7	100 (≈ 384 µM)	100 (≈ 384 µM)	17	inhibition of growth at 10 µM (A498): 38.7%; inhibition of growth at 10 µM (PC-3): 14.2%; inhibition of growth at 10 µM (NCI-H226): 15.5%
Cc1nnc2c(Cc3ccccc3)nc3ccccc3n12	100 (≈ 365 µM)	12	12	200 (≈ 729 µM)	100 (≈ 365 µM)	21.9	50 (≈ 182 µM)	100 (≈ 365 µM)	13	50 (≈ 182 µM)	11	50 (≈ 182 µM)	50 (≈ 182 µM)		100 (≈ 365 µM)	100 (≈ 365 µM)	14	inhibition of growth at 10 µM [16]: 12.6%; inhibition of growth at 10 µM [17]: 17.6%; inhibition of growth at 10 µM (NCI-H226): 15.1%
O=[N+]([O-])c1ccc(-c2nnc3c(Cc4ccccc4)nc4ccccc4n23)cc1	100 (≈ 262 µM)	14	14	50 (≈ 131 µM)	50 (≈ 131 µM)		50 (≈ 131 µM)	50 (≈ 131 µM)	12	100 (≈ 262 µM)	12	100 (≈ 262 µM)	100 (≈ 262 µM)		25 (≈ 65.5 µM)	100 (≈ 262 µM)	15	
Brc1ccc(C2=NN=C3C(Cc4ccccc4)=Nc4ccccc4N3C2)cc1	50 (≈ 116 µM)	14	12	50 (≈ 116 µM)	100 (≈ 233 µM)		50 (≈ 116 µM)	100 (≈ 233 µM)	12	50 (≈ 116 µM)	12	50 (≈ 116 µM)	50 (≈ 116 µM)		50 (≈ 116 µM)	50 (≈ 116 µM)	14	
CCOC(=O)C/C(C)=N\Nc1nc2ccccc2nc1Cc1ccccc1	50 (≈ 138 µM)	14	15	100 (≈ 276 µM)	100 (≈ 276 µM)		100 (≈ 276 µM)	100 (≈ 276 µM)	12	100 (≈ 276 µM)	12	50 (≈ 138 µM)	50 (≈ 138 µM)	15.8	50 (≈ 138 µM)	100 (≈ 276 µM)	14	inhibition of growth at 10 µM (A498): 17.8%
Nc1cc(-c2ccc(Cl)cc2)nn1-c1nc2ccccc2nc1Cc1ccccc1	100 (≈ 243 µM)	16	14	50 (≈ 121 µM)	50 (≈ 121 µM)	15.6	100 (≈ 243 µM)	50 (≈ 121 µM)	15	100 (≈ 243 µM)	12	100 (≈ 243 µM)	100 (≈ 243 µM)		50 (≈ 121 µM)	100 (≈ 243 µM)	16	inhibition of growth at 10 µM (MDA-MB-231): 24.9%; inhibition of growth at 10 µM (A549): 22%; inhibition of growth at 10 µM (HCT-116): 27.2%; inhibition of growth at 10 µM (HT-29): 30.3%; inhibition of growth at 10 µM [18]: 21.4%; inhibition of growth at 10 µM (NCI-H226): 15.7%; inhibition of growth at 10 µM [19]: 21.3%; inhibition of growth at 10 µM (CAKI-1): 19.3%; inhibition of growth at 10 µM (NCI-H23): 18.5%; inhibition of growth at 10 µM (HCT-15): 25.6%
O=c1[nH]nc2c(Cc3ccccc3)nc3ccccc3n12	200 (≈ 724 µM)	10	16	100 (≈ 362 µM)	100 (≈ 362 µM)		100 (≈ 362 µM)	100 (≈ 362 µM)	16	100 (≈ 362 µM)	12	100 (≈ 362 µM)	100 (≈ 362 µM)	35.5	50 (≈ 181 µM)	200 (≈ 724 µM)	14	inhibition of growth at 10 µM (A498): 28.6%
O=C(O)CCc1nnc2c(Cc3ccccc3)nc3ccccc3n12	25 (≈ 75.2 µM)	15	13	100 (≈ 301 µM)	25 (≈ 75.2 µM)	17.7	25 (≈ 75.2 µM)	25 (≈ 75.2 µM)	12	25 (≈ 75.2 µM)	12	12.5 (≈ 37.6 µM)	12.5 (≈ 37.6 µM)	12.2	50 (≈ 150 µM)	50 (≈ 150 µM)	16	inhibition of growth at 10 µM [17]: 18.9%
O=C(O)c1ccccc1-c1nnc2c(Cc3ccccc3)nc3ccccc3n12	100 (≈ 263 µM)	15	14	50 (≈ 131 µM)	100 (≈ 263 µM)	24.4	100 (≈ 263 µM)	100 (≈ 263 µM)	16	50 (≈ 131 µM)	12	25 (≈ 65.7 µM)	100 (≈ 263 µM)	18	25 (≈ 65.7 µM)	200 (≈ 526 µM)	14	inhibition of growth at 10 µM (NCI-H522): 14.6%; inhibition of growth at 10 µM (SF-268): 14.1%; inhibition of growth at 10 µM (PC-3): 43.9%; inhibition of growth at 10 µM (OVCAR-3): 20.2%
CCOC(=O)c1nnc2c(Cc3ccccc3)nc3ccccc3n12	100 (≈ 301 µM)	12	14	50 (≈ 150 µM)	100 (≈ 301 µM)	10.3	50 (≈ 150 µM)	100 (≈ 301 µM)	13	50 (≈ 150 µM)	10	50 (≈ 150 µM)	50 (≈ 150 µM)	15.1	25 (≈ 75.2 µM)	50 (≈ 150 µM)	15	
CCOC(=O)Cc1nnc2c(Cc3ccccc3)nc3ccccc3n12	100 (≈ 289 µM)	15	14	25 (≈ 72.2 µM)	100 (≈ 289 µM)		50 (≈ 144 µM)	100 (≈ 289 µM)	14	100 (≈ 289 µM)	14	100 (≈ 289 µM)	100 (≈ 289 µM)		25 (≈ 72.2 µM)	100 (≈ 289 µM)	12	
CC1(C)S[C@@H]2[C@H](NC(=O)[C@H](N)c3ccccc3)C(=O)N2[C@H]1C(=O)O [AMPICILLIN]							5 (≈ 14.3 µM)	50 (≈ 143 µM)				10 (≈ 28.6 µM)	12.5 (≈ 35.8 µM)					
Clc1ccccc1C(c1ccccc1)(c1ccccc1)n1ccnc1 [CLOTRIMAZOLE]															5 (≈ 14.5 µM)			
